From US11858941B2, “Heterocyclic and heteroaryl compounds for treating Huntington's disease” (PTC THERAPEUTICS, INC., priority 2018, dated 2024)

test system: Endogenous Huntingtin Protein; assay: Endogenous Huntingtin Protein Assay (Meso Scale Discovery ELISA-based electrochemiluminescence); format: cell-based; conditions: MSD plates coated with MW1 (expanded polyglutamine) or MAB2166 capture antibody; lysates
Outline: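 MSD electrochemiluminescence sandwich ELISA: MW1 (expanded polyQ) or MAB2166 capture antibody at 1 μg/mL, samples incubated overnight at 4° C. Detection with rabbit monoclonal #5656S then SULFO-TAG anti-rabbit antibody, each 0.25 μg/mL for 1 h at room temperature.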

`Cc1cc(-c2ccc(-c3cc4nnn(C5CC(C)(C)NC(C)(C)C5)c4nn3)c(O)c2)ccn1` [Cpd 73, 5-(2-methylpyridin-4-yl)-2-[3-(2,2,6,6-tetramethylpiperidin-4-yl)-3H-[1,2,3]triazolo[4,5-c]pyridazin-6-yl]phenol] and `CC1(C)CC(n2nnc3cc(-c4ccc(-c5ccnc(N)c5)cc4O)nnc32)CC(C)(C)N1` [Cpd 99, 5-(2-aminopyridin-4-yl)-2-[3-(2,2,6,6-tetramethylpiperidin-4-yl)-3H-[1,2,3]triazolo[4,5-c]pyridazin-6-yl]phenol] cannot be ordered by IC50: ≤ 100 nM for the first, ≤ 100 nM for the second.

`CC1(C)CC(n2nnc3cc(-c4ccc(-c5ccoc5)cc4O)nnc32)CC(C)(C)N1` [Cpd 95, 5-(furan-3-yl)-2-[3-(2,2,6,6-tetramethylpiperidin-4-yl)-3H-[1,2,3]triazolo[4,5-c]pyridazin-6-yl]phenol] and `CC1(C)CC(n2nnc3cc(-c4ccc(-c5cc[nH]c5)cc4O)nnc32)CC(C)(C)N1` [Cpd 80, 5-(1H-pyrrol-3-yl)-2-[3-(2,2,6,6-tetramethylpiperidin-4-yl)-3H-[1,2,3]triazolo[4,5-c]pyridazin-6-yl]phenol] fall in the same range of IC50: 100 to 500 nM for the first, 100 to 500 nM for the second.

Compared with `Cn1cc(-c2ccc(-c3cc4cnn(C5CC(C)(C)NC(C)(C)C5)c4nn3)c(O)c2)cn1` [Cpd 98, 5-(1-methyl-1H-pyrazol-4-yl)-2-[1-(2,2,6,6-tetramethylpiperidin-4-yl)-1H-pyrazolo[3,4-c]pyridazin-5-yl]phenol], `CC1(C)CC(n2ncc3cc(-c4ccc(-c5cncnc5)cc4O)nnc32)CC(C)(C)N1` [Cpd 167, 5-(pyrimidin-5-yl)-2-[1-(2,2,6,6-tetramethylpiperidin-4-yl)-1H-pyrazolo[3,4-c]pyridazin-5-yl]phenol] is higher in IC50: ≤ 100 nM for the first, 1000 to 3000 nM for the second. The first is the more potent here.

`CC1(C)CC(n2nnc3cc(-c4ccc(-c5c[nH]nn5)cc4O)nnc32)CC(C)(C)N1` [Cpd 112, 2-[3-(2,2,6,6-tetramethylpiperidin-4-yl)-3H-[1,2,3]triazolo[4,5-c]pyridazin-6-yl]-5-(1H-1,2,3-triazol-4-yl)phenol] and `Cc1n[nH]cc1-c1ccc(-c2cc3nnn(C4CC(C)(C)NC(C)(C)C4)c3nn2)c(O)c1` [Cpd 108, 5-(3-methyl-1H-pyrazol-4-yl)-2-[3-(2,2,6,6-tetramethylpiperidin-4-yl)-3H-[1,2,3]triazolo[4,5-c]pyridazin-6-yl]phenol] cannot be ordered by IC50: ≤ 100 nM for the first, ≤ 100 nM for the second.

`CC1(C)CC(n2nnc3cc(-c4ccc(-c5cnc6nccn6c5)cc4O)nnc32)CC(C)(C)N1` [Cpd 160, 5-(imidazo[1,2-a]pyrimidin-6-yl)-2-(3-(2,2,6,6-tetramethylpiperidin-4-yl)-3H-[1,2,3]triazolo[4,5-c]pyridazin-6-yl)phenol] and `CC1(C)CC(n2nnc3cc(-c4ccc(-c5ccnnc5)cc4O)nnc32)CC(C)(C)N1` [Cpd 76, 5-(pyridazin-4-yl)-2-[3-(2,2,6,6-tetramethylpiperidin-4-yl)-3H-[1,2,3]triazolo[4,5-c]pyridazin-6-yl]phenol] fall in the same range of IC50: 100 to 500 nM for the first, 100 to 500 nM for the second.

`CC1(C)CC(n2nnc3cc(-c4ccc(-c5ccc6nccn6n5)cc4O)nnc32)CC(C)(C)N1` [Cpd 162, 5-(imidazo[1,2-b]pyridazin-6-yl)-2-(3-(2,2,6,6-tetramethylpiperidin-4-yl)-3H-[1,2,3]triazolo[4,5-c]pyridazin-6-yl)phenol] and `CC1(C)CC(n2nnc3cc(-c4ccc(-c5ccn6nncc6c5)cc4O)nnc32)CC(C)(C)N1` [Cpd 125, 2-[3-(2,2,6,6-tetramethylpiperidin-4-yl)-3H-[1,2,3]triazolo[4,5-c]pyridazin-6-yl]-5-([1,2,3]triazolo[1,5-a]pyridin-5-yl)phenol] cannot be ordered by IC50: ≤ 100 nM for the first, 100 to 500 nM for the second.

`CC1(C)CC(n2nnc3cc(-c4ccc(-c5ccc(OC(F)F)cn5)cc4O)nnc32)CC(C)(C)N1` [Cpd 103, 5-[5-(difluoromethoxy)pyridin-2-yl]-2-[3-(2,2,6,6-tetramethylpiperidin-4-yl)-3H-[1,2,3]triazolo[4,5-c]pyridazin-6-yl]phenol] and `COc1nccc(-c2ccc(-c3cc4nnn(C5CC(C)(C)NC(C)(C)C5)c4nn3)c(O)c2)n1` [Cpd 119, 5-(2-methoxypyrimidin-4-yl)-2-[3-(2,2,6,6-tetramethylpiperidin-4-yl)-3H-[1,2,3]triazolo[4,5-c]pyridazin-6-yl]phenol] fall in the same range of IC50: 100 to 500 nM for the first, 100 to 500 nM for the second.

First: CC1(C)CC(n2ncc3cc(-c4ccc(-n5nccn5)cc4O)nnc32)CC(C)(C)N1 [Cpd 174, 2-[1-(2,2,6,6-tetramethylpiperidin-4-yl)-1H-pyrazolo[3,4-c]pyridazin-5-yl]-5-(2H-1,2,3-triazol-2-yl)phenol]
Second: Cc1cn(-c2ccc(-c3cc4nnn(C5CC(C)(C)NC(C)(C)C5)c4nn3)c(O)c2)c(C)n1 [Cpd 149, 5-(2,4-dimethyl-1H-imidazol-1-yl)-2-[3-(2,2,6,6-tetramethylpiperidin-4-yl)-3H-[1,2,3]triazolo[4,5-c]pyridazin-6-yl]phenol]
The IC50 of the first is lower: ≤ 100 nM for the first, 1000 to 3000 nM for the second.

`Cn1ncc(-c2ccc(-c3cc4nnn(C5CC(C)(C)NC(C)(C)C5)c4nn3)c(O)c2)c1F` [Cpd 121, 5-(5-fluoro-1-methyl-1H-pyrazol-4-yl)-2-[3-(2,2,6,6-tetramethylpiperidin-4-yl)-3H-[1,2,3]triazolo[4,5-c]pyridazin-6-yl]phenol] and `CC1(C)CC(n2nnc3cc(-c4ccc(-c5ncc(O)cn5)cc4O)nnc32)CC(C)(C)N1` [Cpd 68, 2-{3-hydroxy-4-[3-(2,2,6,6-tetramethylpiperidin-4-yl)-3H-[1,2,3]triazolo[4,5-c]pyridazin-6-yl]phenyl}pyrimidin-5-ol] cannot be ordered by IC50: ≤ 100 nM for the first, ≤ 100 nM for the second.

Compared with `CC1(C)CC(n2nnc3cc(-c4ccc(-c5ccn(C6CC6)c(=O)c5)cc4O)nnc32)CC(C)(C)N1` [Cpd 86, 1-cyclopropyl-4-{3-hydroxy-4-[3-(2,2,6,6-tetramethylpiperidin-4-yl)-3H-[1,2,3]triazolo[4,5-c]pyridazin-6-yl]phenyl}pyridin-2(1H)-one], `CC1(C)CC(n2nnc3cc(-c4ccc(-c5cc[nH]c(=O)c5)cc4O)nnc32)CC(C)(C)N1` [Cpd 93, 4-{3-hydroxy-4-[3-(2,2,6,6-tetramethylpiperidin-4-yl)-3H-[1,2,3]triazolo[4,5-c]pyridazin-6-yl]phenyl}pyridin-2(1H)-one] is lower in IC50: 1000 to 3000 nM for the first, ≤ 100 nM for the second. The second is the more potent here.

`CC1(C)C=C(c2csc3cc(-c4ccc(-c5cn[nH]c5)cc4O)nnc23)CC(C)(C)N1` [Cpd 17, 5-(1H-pyrazol-4-yl)-2-[7-(2,2,6,6-tetramethyl-1,2,3,6-tetrahydropyridin-4-yl)thieno[3,2-c]pyridazin-3-yl]phenol] and `CC1(C)C=C(c2coc3cc(-c4ccc(-c5cn[nH]c5)cc4O)nnc23)CC(C)(C)N1` [Cpd 105, 5-(1H-pyrazol-4-yl)-2-[7-(2,2,6,6-tetramethyl-1,2,3,6-tetrahydropyridin-4-yl)furo[3,2-c]pyridazin-3-yl]phenol] cannot be ordered by IC50: ≤ 100 nM for the first, ≤ 100 nM for the second.

Compared with `CC1(C)CC(n2nnc3cc(-c4ccc(-c5cccnc5)cc4O)nnc32)CC(C)(C)N1` [Cpd 65, 5-(pyridin-3-yl)-2-[3-(2,2,6,6-tetramethylpiperidin-4-yl)-3H-[1,2,3]triazolo[4,5-c]pyridazin-6-yl]phenol], `CC(C)(C)NC1CC(n2nnc3cc(-c4ccc(-c5cn[nH]c5)cc4O)nnc32)C1` (stereo not drawn) [Cpd 170, 2-{3-[3-(tert-butylamino)cyclobutyl]-3H-[1,2,3]triazolo[4,5-c]pyridazin-6-yl}-5-(1H-pyrazol-4-yl)phenol] is higher in IC50: 500 to 1000 nM for the first, 1000 to 3000 nM for the second.
